From patent publication US11964996B2, “2-alkynylmannose derivative and application thereof” (priority 2020, dated 2024)

Target: T1, FimH proteins (Escherichia coli, UniProt Q1R2J4)
T1 construct: endogenous in cells; host or cells: UPEC strain UTI89 (whole bacteria)
Experiment: hemagglutination inhibition (HAI) assay: UPEC UTI89 with guinea pig red blood cells
Type: cell-based, uropathogenic Escherichia coli (UPEC) UTI89
Conditions: read-out: HAI EC90 (minimum concentration for inhibiting hemagglutination)
Procedure: In the present example, the mannose derivatives A1 to A107 that were prepared in Examples 1 to 12 were analyzed in hemagglutination inhibition (HAI) assays to determine inhibitory effects of the compounds on the function/activity of FimH proteins.
1. Preparation of a guinea pig red blood cell solution: an adult guinea pig was anesthetized with ethyl ether, blood was sampled from the heart, placed in an EDTA blood collection tube, and centrifuged at 2,000 rpm for 5 min, serum was removed, the sample was transferred in a centrifuge tube (15 mL), sterilized PBS was added, the sample was centrifuged at 1,500 rpm for 10 min, a supernatant was removed, the sample was transferred in a centrifuge tube (50 mL), PBS was added, the sample was centrifuged at 1,500 rpm for 10 min and repeatedly washed twice, and red blood cells were slightly aspirated into a new centrifuge tube (50 mL) to obtain a 5% guinea pig red blood cell solution.
2. Preparation of a bacteria solution: a UPEC cell line UTI89 was inoculated on a medium plate and cultured in an incubator at 37° C. overnight. Single colonies were picked and inoculated in an LB medium in a sterilized conical flask, and cultured at 37° C. and 170 r/min overnight. When an OD value at 540 nm was about 0.8 on a microplate reader, the bacterial concentration was about 10^8-10^9 cfu/mL, the bacteria solution was centrifuged at 2,000 rpm for 10 min, a supernatant was removed, and 1 mL of bacteria solution was prepared into 0.1 mL of PBS bacteria solution. […] The bacteria and the medium were uniformly mixed by shaking, and reacted in an incubator at 25° C. for about 20-40 min. When the plate was read, the wells in which complete agglutination occurred were used as 4HAU for the hemagglutination titer of the bacteria. For example, if the endpoint titer of hemagglutination is 1:256, the dilution multiple of the 4HAU antigen is 1:64 (256 divided by 4). Bacteria solutions at corresponding concentrations were prepared according to the experimental results.
3. Activity assay: a compound to be tested or a standard product was placed in a 96-well microtest plate, 50 μL of drug at an initial concentration of 200 μM was placed in the first well, and from the second well, 25 μL of PBS was added to each well to dilute the drug in proportion. The drug and the medium in the first well were mixed, 25 μL of mixed drug solution was placed in the second well, the drug solution was diluted in sequence to the last well, and 25 μL of drug solution was removed. 25 μL of bacteria solution was placed in each well of the culture plate containing the diluted drug, and cultured at 37° C. for 40 min. 25 μL of 5% guinea pig red blood cell suspension was placed in each well, and slightly uniformly mixed with the drug, and the plate was placed at 4° C. for about 1 h. When results were determined, the plate was tilted 60°, and whether the red blood cells flowed like teardrops was observed.
Mannosyl proteins are expressed on the surface of red blood cells in a guinea pig, which can bind to FimH proteins of UTI89 to cause hemagglutination. It can be observed with the naked eyes that the red blood cells form film-like agglutination at the bottom of the well, and loose red dots can be seen in the center. The FimH protein inhibitor competitively binds to FimH proteins to inhibit hemagglutination. It can be observed with the naked eyes that all the red blood cells sink and concentrate at the bottom of the well to form dense dots. The minimum concentration for inhibiting hemagglutination is expressed as an EC90 value of a compound. The final concentration of the compound in the first well is 66700 nM, the concentration in the second well is half that in the first well, the concentration in the third well is half that in the second well, and so on. […] A low EC90 value indicates high activity of a compound.

| SMILES | EC90 [nM] |
| --- | --- |
| OC[C@H]1O[C@H](C#Cc2cnn([C@@H]3CCOC3)c2)[C@](O)(C#Cc2ccccc2)[C@@H](O)[C@@H]1O [Compound A50] | 130 |
| OC[C@H]1O[C@H](C#Cc2cnn(C3CCCOC3)c2)[C@](O)(C#Cc2ccccc2)[C@@H](O)[C@@H]1O (some centres unmarked) [Compound A51] | 16 |
| OC[C@H]1O[C@H](C#Cc2cnn(C3CCOCC3)c2)[C@](O)(C#Cc2ccccc2)[C@@H](O)[C@@H]1O [Compound A52] | 4 |
| OC[C@H]1O[C@H](C#Cc2cnn(C3CCC(F)(F)CC3)c2)[C@](O)(C#Cc2ccccc2)[C@@H](O)[C@@H]1O [Compound A53] | 8 |
| O=c1ccc(C#C[C@H]2O[C@H](CO)[C@@H](O)[C@H](O)[C@@]2(O)C#Cc2ccccc2)cn1C1CCCCC1 [Compound A54] | 4 |
| O=c1ccc(C#C[C@H]2O[C@H](CO)[C@@H](O)[C@H](O)[C@@]2(O)C#Cc2ccccc2)cn1-c1ccccc1 [Compound A55] | 64 |
| CCC(C)O[C@H]1O[C@H](CO)[C@@H](O)[C@H](O)[C@@]1(O)C#Cc1ccc(F)cc1 (some centres unmarked) [Compound A56] | 520 |
| CCC(C)O[C@H]1O[C@H](CO)[C@@H](O)[C@H](O)[C@@]1(O)C#Cc1cccc(Cl)c1 (some centres unmarked) [Compound A57] | 260 |
| CCC(C)O[C@H]1O[C@H](CO)[C@@H](O)[C@H](O)[C@@]1(O)C#Cc1cccc(OC)c1 (some centres unmarked) [Compound A58] | 520 |
| OC[C@H]1O[C@H](C#Cc2cnn(C3CCCCC3)c2)[C@](O)(C#CC2CC2)[C@@H](O)[C@@H]1O [Compound A59] | 4 |
| CO[C@H]1CC[C@H](n2cc(C#C[C@H]3O[C@H](CO)[C@@H](O)[C@H](O)[C@@]3(O)C#Cc3ccccc3)cn2)CC1 [Compound A60] | 2 |
| OC[C@H]1O[C@H](C#Cc2cnn([C@@H]3C[C@H]4C[C@H]4C3)c2)[C@](O)(C#Cc2ccccc2)[C@@H](O)[C@@H]1O [Compound A61] | 8 |
| OC[C@H]1O[C@H](C#Cc2cnn([C@H]3C[C@H]4C[C@H]4C3)c2)[C@](O)(C#Cc2ccccc2)[C@@H](O)[C@@H]1O [Compound A62] | 0.5 |
| CC(n1cc(C#C[C@H]2O[C@H](CO)[C@@H](O)[C@H](O)[C@@]2(O)C#Cc2ccccc2)cn1)C(F)(F)F (some centres unmarked) [Compound A63] | 16 |
| OC[C@H]1O[C@H](C#Cc2cnn(-c3ncccc3Cl)c2)[C@](O)(C#Cc2ccccc2)[C@@H](O)[C@@H]1O [Compound A64] | 4 |
| N#Cc1ccccc1-n1cc(C#C[C@H]2O[C@H](CO)[C@@H](O)[C@H](O)[C@@]2(O)C#Cc2ccccc2)cn1 [Compound A65] | 64 |
| OC[C@H]1O[C@H](C#Cc2cnn(-c3cccc(Cl)c3)c2)[C@](O)(C#Cc2ccccc2)[C@@H](O)[C@@H]1O [Compound A66] | 0.13 |
| OC[C@H]1O[C@H](C#Cc2cnn(-c3ccc(Cl)cc3)c2)[C@](O)(C#Cc2ccccc2)[C@@H](O)[C@@H]1O [Compound A67] | 0.13 |
| OC[C@H]1O[C@H](C#Cc2cnn(-c3ccc(F)cc3)c2)[C@](O)(C#Cc2ccccc2)[C@@H](O)[C@@H]1O [Compound A68] | 8 |
| OC[C@H]1O[C@H](C#Cc2cnn(C3CCCCC3O)c2)[C@](O)(C#Cc2ccccc2)[C@@H](O)[C@@H]1O (some centres unmarked) [Compound A69] | 16 |
| OC[C@H]1O[C@H](C#Cc2cnn(-c3ccccc3Cl)c2)[C@](O)(C#CC2CC2)[C@@H](O)[C@@H]1O [Compound A70] | 8 |
| COc1cnc(-n2cc(C#C[C@H]3O[C@H](CO)[C@@H](O)[C@H](O)[C@@]3(O)C#Cc3cnn(C)c3)cn2)nc1 [Compound A71] | 8 |
| OC[C@H]1O[C@H](C#Cc2cnn(-c3ccc(Cl)cc3)c2)[C@](O)(C#CC2CC2)[C@@H](O)[C@@H]1O [Compound A72] | < 0.1 |
| OC[C@H]1O[C@H](C#Cc2cnn(-c3ccc(Cl)cc3)c2)[C@](O)(C#Cc2cccnc2)[C@@H](O)[C@@H]1O [Compound A73] | 8 |

| SMILES | EC90 [nM] |
| --- | --- |
| Cn1cc(C#C[C@@]2(O)[C@@H](C#Cc3cnn(-c4ccc(Cl)cc4)c3)O[C@H](CO)[C@@H](O)[C@@H]2O)cn1 [Compound A74] | 0.13 |
| CO[C@H]1CC[C@H](n2cc(C#C[C@H]3O[C@H](CO)[C@@H](O)[C@H](O)[C@@]3(O)C#Cc3cc(F)cc(F)c3)cn2)CC1 [Compound A75] | 8 |
| OC[C@H]1O[C@H](C#Cc2cnn([C@H]3CC[C@H](O)CC3)c2)[C@](O)(C#Cc2ccc(F)cc2)[C@@H](O)[C@@H]1O [Compound A76] | 4 |
| OC[C@H]1O[C@H](C#Cc2cnn([C@H]3CC[C@H](O)CC3)c2)[C@](O)(C#Cc2ccccc2)[C@@H](O)[C@@H]1O [Compound A77] | 2 |
| CCn1cc(C#C[C@@]2(O)[C@@H](C#Cc3cnn(-c4ccc(Cl)cc4)c3)O[C@H](CO)[C@@H](O)[C@@H]2O)cn1 [Compound A78] | < 0.1 |
| Cn1cc(C#C[C@@]2(O)[C@@H](C#Cc3cnn(-c4cnn(C)c4)c3)O[C@H](CO)[C@@H](O)[C@@H]2O)cn1 [Compound A79] | 16 |
| CCC#C[C@@]1(O)[C@@H](C#Cc2cnn(-c3ccc(Cl)cc3)c2)O[C@H](CO)[C@@H](O)[C@@H]1O [Compound A80] | 2 |
| COc1ccc(-n2cc(C#C[C@H]3O[C@H](CO)[C@@H](O)[C@H](O)[C@@]3(O)C#Cc3ccccc3)cn2)cc1 [Compound A81] | < 0.1 |
| COc1ccc(-n2cc(C#C[C@H]3O[C@H](CO)[C@@H](O)[C@H](O)[C@@]3(O)C#Cc3cnn(C)c3)cn2)cc1 [Compound A82] | < 0.1 |
| Cn1cc(C#C[C@@]2(O)[C@@H](C#Cc3cnn(C4CCC(F)(F)CC4)c3)O[C@H](CO)[C@@H](O)[C@@H]2O)cn1 [Compound A83] | 2 |
| Cn1cc(C#C[C@@]2(O)[C@@H](C#Cc3cnn(-c4ccccc4)c3)O[C@H](CO)[C@@H](O)[C@@H]2O)cn1 [Compound A84] | 0.25 |
| Cn1cc(C#C[C@@]2(O)[C@@H](C#Cc3cnn(C4CCCCC4)c3)O[C@H](CO)[C@@H](O)[C@@H]2O)cn1 [Compound A85] | 2 |
| CCC#C[C@@]1(O)[C@@H](C#Cc2cnn(-c3ccccc3)c2)O[C@H](CO)[C@@H](O)[C@@H]1O [Compound A87] | 32 |
| OC[C@H]1O[C@H](C#Cc2cnn(-c3ccccc3)c2)[C@](O)(C#CC2CC2)[C@@H](O)[C@@H]1O [Compound A88] | 4 |
| O=S(=O)(O)c1cccc(C#C[C@@]2(O)[C@@H](C#Cc3cnn(-c4ccc(OC[C@H](O)CO)cc4)c3)O[C@H](CO)[C@@H](O)[C@@H]2O)c1 [Compound A89] | 16 |
| [2H]C([2H])([2H])Oc1ccc(-n2cc(C#C[C@H]3O[C@H](CO)[C@@H](O)[C@H](O)[C@@]3(O)C#CC3CC3)cn2)cc1 [Compound A90] | < 0.1 |
| OC[C@@H](O)COc1ccc(-n2cc(C#C[C@H]3O[C@H](CO)[C@@H](O)[C@H](O)[C@@]3(O)C#Cc3cnn(C[C@H](O)CO)c3)cn2)cc1 [Compound A91] | 8 |
| OC[C@H]1O[C@H](C#Cc2cnn(-c3cccc(Cl)c3)c2)[C@](O)(C#CC2CC2)[C@@H](O)[C@@H]1O [Compound A92] | 2 |
| OC[C@H]1O[C@H](C#Cc2cnn(-c3ccc(F)cc3)c2)[C@](O)(C#CC2CC2)[C@@H](O)[C@@H]1O [Compound A93] | 2 |
| Cc1ccc(-n2cc(C#C[C@H]3O[C@H](CO)[C@@H](O)[C@H](O)[C@@]3(O)C#CC3CC3)cn2)cc1 [Compound A94] | < 0.1 |
| OC[C@H]1O[C@H](C#Cc2cnn(-c3ccc(C(F)(F)F)cc3)c2)[C@](O)(C#CC2CC2)[C@@H](O)[C@@H]1O [Compound A95] | 4 |
| N#Cc1ccc(-n2cc(C#C[C@H]3O[C@H](CO)[C@@H](O)[C@H](O)[C@@]3(O)C#CC3CC3)cn2)cc1 [Compound A96] | 4 |
| COc1ccc(-n2cc(C#C[C@H]3O[C@H](CO)[C@@H](O)[C@H](O)[C@@]3(O)C#CC3CC3)cn2)cc1 [Compound A97] | < 0.1 |
